In US10189845B2, “4,6-substituted-pyrazolo[1,5-a]pyrazines as janus kinase inhibitors” (ARRAY BIOPHARMA INC., priority 2014, dated 2019):
Like-named read-outs stand apart in the source and are kept apart here.

How the values were obtained:
Format in all cases: biochemical
JAK1 = JAK1 (Homo sapiens (Human), UniProt P23458); assay: JAK1 Inhibition Assay (Example B, Omnia kinase fluorescence peptide substrate assay)
Source text: (§1) The assays described in Examples A, B, C and D for the determination of Tyk2, JAK1, JAK2 and JAK3 kinase activity, respectively, utilized the Omnia® Kinase fluorescence peptide substrate-based technology (Invitrogen). The specific components of the assay mixture are described in Examples A, B, C and D. In these assays, Mg^2+ is chelated upon phosphorylation of the Omnia peptide by the kinase to form a bridge between the chelation-enhanced fluorophore Sox and the phosphate, resulting in an increase in fluorescence emission at 485 nm when excited at […]. The reactions were therefore read at excitation 360 nm and emission was measured at 485 nm every 50 seconds for 45 minutes using a PerkinElmer EnVision Multilabel Plate Reader.
(§2) The final buffer conditions for Tyk2, JAK1, JAK2, and JAK3 assays were as follows: 25 mM HEPES, pH 7.4, 10 mM MgCl2, 0.01% Triton X-100 and 1 mM DTT.
(§3) Two-μL aliquots of these were transferred to a fresh plate for a ten-fold intermediate dilution with assay buffer. Five-μL aliquots of the diluted compounds were then transferred to 20-μL of assay mixtures described in Examples A, B, C and D for a final concentration of DMSO of 2%. […] For each plate, percent of control (POC) values were calculated for each well according to the following equation: […]
(§4) IC50's were estimated from the POC's using a standard 4-parameter logistic model:
(§5) The IC50 is defined as the concentration of inhibitor at which the POC equals 50 for the fitted curve.
(§6) Compounds of Formula I were screened for their ability to inhibit JAK1 using the general enzyme inhibition assay method, in which the assay mixture contained 1 mM ATP, 8 μM Omnia® Y12 peptide (Catalog # IVGN KPZ3121C; Invitrogen Corporation, Carlsbad, Calif.) and 12.5 nM JAK1 in a total volume of 25 μL. JAK1 was purchased from Invitrogen Corporation, Carlsbad, Calif. (catalog # IVGN PV4775).

JAK2 = JAK2 (Homo sapiens (Human), UniProt O60674); assay: JAK2 Inhibition Assay (Example C, Omnia kinase fluorescence peptide substrate assay); conditions: JAK2 Enzyme IC50 1 mM ATP, averaged IC50 ranges
JAK2, sequence (O60674 whole entry): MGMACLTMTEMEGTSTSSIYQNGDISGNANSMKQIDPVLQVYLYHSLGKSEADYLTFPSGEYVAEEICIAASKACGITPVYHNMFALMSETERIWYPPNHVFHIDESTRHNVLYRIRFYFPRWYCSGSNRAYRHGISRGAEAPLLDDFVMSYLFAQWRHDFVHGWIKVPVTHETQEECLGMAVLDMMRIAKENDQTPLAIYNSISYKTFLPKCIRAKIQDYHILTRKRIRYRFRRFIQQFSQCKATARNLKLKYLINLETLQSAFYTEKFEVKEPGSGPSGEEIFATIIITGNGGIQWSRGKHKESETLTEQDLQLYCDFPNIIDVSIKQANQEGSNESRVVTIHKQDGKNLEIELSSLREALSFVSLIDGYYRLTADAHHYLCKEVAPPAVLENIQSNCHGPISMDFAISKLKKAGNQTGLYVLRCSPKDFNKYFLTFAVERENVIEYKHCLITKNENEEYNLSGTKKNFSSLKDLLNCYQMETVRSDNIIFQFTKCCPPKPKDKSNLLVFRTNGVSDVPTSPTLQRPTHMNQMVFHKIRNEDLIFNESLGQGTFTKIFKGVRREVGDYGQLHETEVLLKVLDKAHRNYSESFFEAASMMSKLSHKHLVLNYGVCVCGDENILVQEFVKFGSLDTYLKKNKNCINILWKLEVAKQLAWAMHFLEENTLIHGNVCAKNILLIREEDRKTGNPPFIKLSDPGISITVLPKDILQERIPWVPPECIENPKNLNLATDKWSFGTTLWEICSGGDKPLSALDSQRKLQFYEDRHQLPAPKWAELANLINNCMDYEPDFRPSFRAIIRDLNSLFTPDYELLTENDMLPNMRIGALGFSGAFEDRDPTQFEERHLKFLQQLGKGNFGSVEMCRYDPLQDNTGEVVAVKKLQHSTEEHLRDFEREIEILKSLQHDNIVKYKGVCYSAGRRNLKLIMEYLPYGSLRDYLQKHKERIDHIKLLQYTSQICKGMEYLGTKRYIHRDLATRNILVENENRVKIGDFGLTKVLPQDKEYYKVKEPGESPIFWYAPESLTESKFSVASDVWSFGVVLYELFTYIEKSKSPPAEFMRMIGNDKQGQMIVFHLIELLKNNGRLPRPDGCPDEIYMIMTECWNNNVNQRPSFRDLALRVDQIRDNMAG
Source text: as §1, §2, §3, §4, §5
as §6, with “JAK2” for “JAK1”, “10” for “8”, “Y7” for “Y12”, “KNZ3071C,” for “KPZ3121C;”, “4” for “12.5”, “PV4288).” for “PV4775).”

JAK3 = JAK3 (Homo sapiens (Human), UniProt P52333); assay: JAK3 Inhibition Assay (Example D, Omnia kinase fluorescence peptide substrate assay)
JAK3, sequence (P52333 whole entry): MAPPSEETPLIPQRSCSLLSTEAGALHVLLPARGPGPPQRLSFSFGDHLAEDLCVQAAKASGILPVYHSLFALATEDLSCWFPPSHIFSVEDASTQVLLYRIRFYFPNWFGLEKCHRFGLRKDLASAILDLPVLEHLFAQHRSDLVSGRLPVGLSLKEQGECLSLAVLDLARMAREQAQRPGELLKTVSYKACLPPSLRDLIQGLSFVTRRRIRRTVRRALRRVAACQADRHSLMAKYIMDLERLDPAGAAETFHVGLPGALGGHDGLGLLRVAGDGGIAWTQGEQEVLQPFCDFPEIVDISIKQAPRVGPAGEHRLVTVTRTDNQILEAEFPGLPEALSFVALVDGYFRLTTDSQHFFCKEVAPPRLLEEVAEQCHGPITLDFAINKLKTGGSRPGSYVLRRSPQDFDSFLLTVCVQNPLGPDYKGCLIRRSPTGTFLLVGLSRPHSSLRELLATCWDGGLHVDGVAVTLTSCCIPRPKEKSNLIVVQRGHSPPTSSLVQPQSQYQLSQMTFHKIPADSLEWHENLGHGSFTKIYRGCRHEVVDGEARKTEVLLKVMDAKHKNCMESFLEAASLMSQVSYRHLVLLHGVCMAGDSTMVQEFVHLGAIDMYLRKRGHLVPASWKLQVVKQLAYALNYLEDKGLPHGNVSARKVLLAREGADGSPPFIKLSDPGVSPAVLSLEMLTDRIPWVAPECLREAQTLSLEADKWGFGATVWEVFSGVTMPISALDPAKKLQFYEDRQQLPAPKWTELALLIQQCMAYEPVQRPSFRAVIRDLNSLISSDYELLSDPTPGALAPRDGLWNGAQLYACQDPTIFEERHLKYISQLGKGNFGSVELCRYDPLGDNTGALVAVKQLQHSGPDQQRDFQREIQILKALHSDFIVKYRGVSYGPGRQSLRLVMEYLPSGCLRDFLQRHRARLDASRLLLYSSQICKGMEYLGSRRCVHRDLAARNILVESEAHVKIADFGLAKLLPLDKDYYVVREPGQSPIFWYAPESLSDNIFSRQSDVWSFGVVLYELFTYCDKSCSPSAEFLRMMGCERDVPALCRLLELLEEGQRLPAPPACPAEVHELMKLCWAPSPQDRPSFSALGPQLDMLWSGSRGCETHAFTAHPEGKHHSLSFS
Source text: as §1, §2, §3, §4, §5
as §6, with “JAK3” for “JAK1”, “10” for “8”, “Y7” for “Y12”, “KNZ3071C,” for “KPZ3121C;”, “2” for “12.5”, “PV4080).” for “PV4775).”

Human Tyk2 kinase domain = Human Tyk2 kinase domain (Homo sapiens (Human), UniProt P29597); assay: Tyk2 Inhibition Assay (Example A, Omnia kinase fluorescence peptide substrate assay); conditions: TYK2 Enzyme IC50 1 mM ATP, averaged IC50 ranges
Human Tyk2 kinase domain, sequence (P29597 886-1187): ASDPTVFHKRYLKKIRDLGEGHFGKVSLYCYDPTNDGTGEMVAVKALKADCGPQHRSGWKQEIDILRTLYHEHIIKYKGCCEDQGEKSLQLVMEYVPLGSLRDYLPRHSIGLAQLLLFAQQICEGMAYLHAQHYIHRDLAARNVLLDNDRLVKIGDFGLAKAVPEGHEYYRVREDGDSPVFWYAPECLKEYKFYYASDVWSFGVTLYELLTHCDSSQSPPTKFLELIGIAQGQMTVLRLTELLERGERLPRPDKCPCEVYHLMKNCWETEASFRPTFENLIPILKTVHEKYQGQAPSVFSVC
Source text: as §1, §2, §3, §4, §5
Compounds of Formula I were screened for their ability to inhibit Tyk2 using the general enzyme inhibition assay method, in which the assay mixture contained 1 mM ATP, 8 μM Omnia Y12 peptide (Catalog # IVGN KPZ3121C; Invitrogen Corporation, Carlsbad, Calif.) and 1 nM Tyk2 in a total volume of 25 μL. Human Tyk2 kinase domain, comprising amino acids 886 to 1187 with 10 additional histidine residues (histidine tag) on the carboxy terminus, was expressed and purified from bacculovirus in-house at Array BioPharma Inc. (Boulder, Colo.). The histidine tag was cleaved after purification using standard conditions.

[1] = JAK1 Enzyme IC50 1 mM ATP, 1 mM ATP, averaged IC50 ranges

JAK1, sequence (P23458 whole entry): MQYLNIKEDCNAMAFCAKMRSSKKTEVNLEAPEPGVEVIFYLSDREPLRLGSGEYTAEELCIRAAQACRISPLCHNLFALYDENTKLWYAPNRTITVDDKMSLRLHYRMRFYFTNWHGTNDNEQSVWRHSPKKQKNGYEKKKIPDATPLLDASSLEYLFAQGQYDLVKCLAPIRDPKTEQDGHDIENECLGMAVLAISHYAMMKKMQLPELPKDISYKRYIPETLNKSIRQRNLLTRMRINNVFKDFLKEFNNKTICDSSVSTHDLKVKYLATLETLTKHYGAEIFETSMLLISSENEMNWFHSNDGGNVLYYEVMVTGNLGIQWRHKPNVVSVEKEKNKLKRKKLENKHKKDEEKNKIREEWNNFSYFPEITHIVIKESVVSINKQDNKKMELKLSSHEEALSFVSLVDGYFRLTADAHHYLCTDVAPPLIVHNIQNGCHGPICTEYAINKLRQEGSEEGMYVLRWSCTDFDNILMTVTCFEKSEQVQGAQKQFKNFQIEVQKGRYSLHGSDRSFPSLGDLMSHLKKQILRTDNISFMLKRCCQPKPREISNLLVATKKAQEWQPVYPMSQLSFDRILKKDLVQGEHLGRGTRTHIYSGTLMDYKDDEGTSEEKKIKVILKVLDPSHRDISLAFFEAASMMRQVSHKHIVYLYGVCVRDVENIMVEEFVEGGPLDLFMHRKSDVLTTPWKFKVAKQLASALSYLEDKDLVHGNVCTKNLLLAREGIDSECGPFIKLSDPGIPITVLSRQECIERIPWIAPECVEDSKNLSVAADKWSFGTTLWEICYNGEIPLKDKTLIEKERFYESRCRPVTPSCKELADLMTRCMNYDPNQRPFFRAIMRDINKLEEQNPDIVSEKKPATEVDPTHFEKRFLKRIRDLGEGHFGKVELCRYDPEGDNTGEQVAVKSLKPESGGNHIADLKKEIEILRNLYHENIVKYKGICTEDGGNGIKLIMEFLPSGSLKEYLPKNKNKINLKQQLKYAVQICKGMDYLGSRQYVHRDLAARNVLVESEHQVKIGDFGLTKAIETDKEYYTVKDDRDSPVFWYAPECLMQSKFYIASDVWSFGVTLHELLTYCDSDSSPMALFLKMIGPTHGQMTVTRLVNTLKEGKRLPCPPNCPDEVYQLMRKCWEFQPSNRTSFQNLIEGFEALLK

SMILES	IC50 (JAK1; [1])	IC50 (JAK2)	IC50 (JAK3)	IC50 (Human Tyk2 kinase domain)	IC50 (JAK1)
CCC(CC)n1cc(-c2nc(-c3cnn(C[C@H](CO)N(C)C)c3)cn3nccc23)cn1 [Example 131, (R)-2-(dimethylamino)-3-(4-(4-(1-(pentan-3-yl)-1H-pyrazol-4-yl)pyrazolo[1,5-a]pyrazin-6-yl)-1H-pyrazol-1-yl)propan-1-ol]	100 to 1000 nM	10 to 100 nM	1000 to 10000 nM	10 to 100 nM	–
CCC(CC)n1cc(-c2nc(-c3cnn([C@H]4C[C@H](O)C4)c3)cn3nccc23)cn1 [Example 161, trans-3-(4-(4-(1-(pentan-3-yl)-1H-pyrazol-4-yl)pyrazolo[1,5-a]pyrazin-6-yl)-1H-pyrazol-1-yl)cyclobutanol]	100 to 1000 nM	10 to 100 nM	1000 to 10000 nM	10 to 100 nM	–
CCC(CC)n1cc(-c2nc(-c3cnn(C[C@H](O)CCO)c3)cn3nccc23)cn1 (single isomer, unassigned) [compound 201]	–	10 to 100 nM	1000 to 10000 nM	10 to 100 nM	1000 to 10000 nM
CC[C@H](CC(F)(F)F)n1cc(-c2nc(-c3cnn(C[C@@H](O)CO)c3)cn3nccc23)cn1 (single isomer, unassigned) [Example 209]	–	10 to 100 nM	–	10 to 100 nM	–
CCC(CC)n1cc(-c2nc(-c3cnn(C4CN(C(=O)CN5CCCC5)C4)c3)cn3nccc23)cn1 [Example 181, 1-(3-(4-(4-(1-(pentan-3-yl)-1H-pyrazol-4-yl)pyrazolo[1,5-a]pyrazin-6-yl)-1H-pyrazol-1-yl)azetidin-1-yl)-2-(pyrrolidin-1-yl)ethanone]	100 to 1000 nM	10 to 100 nM	1000 to 10000 nM	10 to 100 nM	–
CCC(CC)n1cc(-c2nc(-c3cnn(CC(C)(C)CO)c3)cn3nccc23)cn1 [Example 191, 2,2-dimethyl-3-(4-(4-(1-(pentan-3-yl)-1H-pyrazol-4-yl)pyrazolo[1,5-a]pyrazin-6-yl)-1H-pyrazol-1-yl)propan-1-ol]	10 to 100 nM	10 to 100 nM	1000 to 10000 nM	10 to 100 nM	–
CCC(CC)n1cc(-c2nc(-c3cnn([C@H]4CC[C@H](O)CC4)c3)cn3nccc23)cn1 [Example 118, trans-4-(4-(4-(1-(pentan-3-yl)-1H-pyrazol-4-yl)pyrazolo[1,5-a]pyrazin-6-yl)-1H-pyrazol-1-yl)cyclohexanol]	–	< 10 nM	–	10 to 100 nM	10 to 100 nM
CCC(CCO)n1cc(-c2nc(-c3cnn(C)c3)cn3nccc23)cn1 (stereo not shown) [Example 47, 3-(4-(6-(1-methyl-1H-pyrazol-4-yl)pyrazolo[1,5-a]pyrazin-4-yl)-1H-pyrazol-1-yl)pentan-1-ol]	–	1000 to 10000 nM	1000 to 10000 nM	1000 to 10000 nM	1000 to 10000 nM
CCC(CC)n1cc(-c2nc(-c3cnn(C[C@@H](CO)N(C)C)c3)cn3nccc23)cn1 [Example 129, (S)-2-(dimethylamino)-3-(4-(4-(1-(pentan-3-yl)-1H-pyrazol-4-yl)pyrazolo[1,5-a]pyrazin-6-yl)-1H-pyrazol-1-yl)propan-1-ol]	100 to 1000 nM	10 to 100 nM	1000 to 10000 nM	10 to 100 nM	–
CCC(CC)n1cc(-c2nc(-c3cnn(C[C@H](O)CN(C)C)c3)cn3nccc23)cn1 [Example 99, (R)-1-(dimethylamino)-3-(4-(4-(1-(pentan-3-yl)-1H-pyrazol-4-yl)pyrazolo[1,5-a]pyrazin-6-yl)-1H-pyrazol-1-yl)propan-2-ol]	1000 to 10000 nM	10 to 100 nM	1000 to 10000 nM	10 to 100 nM	–
CCC(CC)n1cc(-c2nc(-c3cnn([C@@H]4CCCNC4)c3)cn3nccc23)cn1 [Example 29, (R)-4-(1-(pentan-3-yl)-1H-pyrazol-4-yl)-6-(1-(piperidin-3-yl)-1H-pyrazol-4-yl)pyrazolo[1,5-a]pyrazine]	–	10 to 100 nM	1000 to 10000 nM	10 to 100 nM	100 to 1000 nM
CCC(CC)n1cc(-c2nc(-c3cnn(C[C@H]4CNCCO4)c3)cn3nccc23)cn1 [compound 128, (R)-2-((4-(4-(1-(pentan-3-yl)-1H-pyrazol-4-yl)pyrazolo[1,5-a]pyrazin-6-yl)-1H-pyrazol-1-yl)methyl)morpholine]	–	100 to 1000 nM	1000 to 10000 nM	100 to 1000 nM	1000 to 10000 nM
CCC(CC)n1cc(-c2nc(-c3cnn(CC(O)CN)c3)cn3nccc23)cn1 (stereo not shown) [Example 98, 1-amino-3-(4-(4-(1-(pentan-3-yl)-1H-pyrazol-4-yl)pyrazolo[1,5-a]pyrazin-6-yl)-1H-pyrazol-1-yl)propan-2-ol]	1000 to 10000 nM	10 to 100 nM	1000 to 10000 nM	10 to 100 nM	–
CCC(CO)n1cc(-c2nc(-c3cnn(C)c3)cn3nccc23)cn1 (stereo not shown) [Example 45, 2-(4-(6-(1-methyl-1H-pyrazol-4-yl)pyrazolo[1,5-a]pyrazin-4-yl)-1H-pyrazol-1-yl)butan-1-ol]	–	1000 to 10000 nM	1000 to 10000 nM	1000 to 10000 nM	1000 to 10000 nM
CCC(CC(F)(F)F)n1cc(-c2nc(-c3cnn(C[C@@H](O)CO)c3)cn3nccc23)cn1 (single isomer, unassigned) [Example 210]	–	100 to 1000 nM	–	100 to 1000 nM	–
CCC(CC)n1cc(-c2nc(-c3cnn(C4CN(C(=O)C5(O)CC5)C4)c3)cn3nccc23)cn1 [Example 177, (1-hydroxycyclopropyl)(3-(4-(4-(1-(pentan-3-yl)-1H-pyrazol-4-yl)pyrazolo[1,5-a]pyrazin-6-yl)-1H-pyrazol-1-yl)azetidin-1-yl)methanone]	–	10 to 100 nM	1000 to 10000 nM	–	100 to 1000 nM
CCC[C@H](C)n1cc(-c2nc(-c3cnn(C[C@H](O)CO)c3)cn3nccc23)cn1 [Example 86, (S)-3-(4-(4-(1-((S)-pentan-2-yl)-1H-pyrazol-4-yl)pyrazolo[1,5-a]pyrazin-6-yl)-1H-pyrazol-1-yl)propane-1,2-diol]	100 to 1000 nM	10 to 100 nM	1000 to 10000 nM	–	–
CCC(CC)n1cc(-c2nc(-c3cnn(C4CN(C(=O)C(C)(C)O)C4)c3)cn3nccc23)cn1 [Example 176, 2-hydroxy-2-methyl-1-(3-(4-(4-(1-(pentan-3-yl)-1H-pyrazol-4-yl)pyrazolo[1,5-a]pyrazin-6-yl)-1H-pyrazol-1-yl)azetidin-1-yl)propan-1-one]	–	100 to 1000 nM	1000 to 10000 nM	–	100 to 1000 nM
CCC(CC)n1cc(-c2nc(-c3cnn([C@H]4C[C@@](C)(O)C4)c3)cn3nccc23)cn1 [Example 162, (1s,3s)-1-methyl-3-(4-(4-(1-(pentan-3-yl)-1H-pyrazol-4-yl)pyrazolo[1,5-a]pyrazin-6-yl)-1H-pyrazol-1-yl)cyclobutanol]	–	10 to 100 nM	–	< 10 nM	100 to 1000 nM
CCC(CC)n1cc(-c2nc(-c3cnn([C@H]4CC[C@@H](O)CC4)c3)cn3nccc23)cn1 [Example 121, cis-4-(4-(4-(1-(pentan-3-yl)-1H-pyrazol-4-yl)pyrazolo[1,5-a]pyrazin-6-yl)-1H-pyrazol-1-yl)cyclohexanol]	–	10 to 100 nM	–	10 to 100 nM	100 to 1000 nM
